Each block holds one compound with its values, some of them ahead of it.
Experiments:
PDE10A = details: cited from earlier work
PDE2A [1] = details: cited from earlier work
[2] = In vivo metabolism of the radioligand in mice; set-up: species or system mouse; details: i.v., 30 min p.i., radio-HPLC
Experimental: Prior to the analysis with RP-HPLC, the samples were treated with a mixture of MeCN/H2O (4:1, v/v) to precipitate the proteins. The recovery of radioactivity in plasma and brain samples was 96% and 99%, respectively. […] As shown in the chromatograms (Figure 5), the two radio-metabolites ([^18F]M1 and [^18F]M2) found in the brain were also observed in the corresponding plasma sample, indicating their ability to penetrate the blood-brain barrier. […] On the basis of the in vitro metabolites M1 and M2, both elucidated by LC-MS in the mentioned study, we can conclude about the brain penetrating radio-metabolites [^18F]M1 and [^18F]M2 as products of N-oxidation or C-hydroxylation. Besides, some of the more polar radio-metabolites detected in plasma could only tentatively be assigned as formed by mono-oxygenation, di-oxygenation, reduction, and demethylation, but were not investigated further. […]
Protein precipitation of plasma and brain samples was performed in duplicate with ice-cold MeCN/H2O (8:2, v/v), which was added to the samples (sample/solvent, 1:4, v/v). […] The combined supernatants were concentrated at 70 °C under nitrogen stream until a remaining volume of 100 µL and subsequently quantified by analytical radio-HPLC with an isocratic system (42% MeCN/20 mM NH4OAcaq.; flow rate: 1.0 mL/min). […]

PDE2A [3] = target: T1, PDE2A (Mus musculus, UniProt Q922S4); assay: Dynamic PET-MRI studies in CD-1 mice; format: in vivo; details: female CD-1 mice, i.v., 5 min p.i.; whole brain, striatum and cerebellum
T1 construct: from tissue; host or cells: brain of living female CD-1 mice (in vivo PET)
T1 sequence (Q922S4 1-939): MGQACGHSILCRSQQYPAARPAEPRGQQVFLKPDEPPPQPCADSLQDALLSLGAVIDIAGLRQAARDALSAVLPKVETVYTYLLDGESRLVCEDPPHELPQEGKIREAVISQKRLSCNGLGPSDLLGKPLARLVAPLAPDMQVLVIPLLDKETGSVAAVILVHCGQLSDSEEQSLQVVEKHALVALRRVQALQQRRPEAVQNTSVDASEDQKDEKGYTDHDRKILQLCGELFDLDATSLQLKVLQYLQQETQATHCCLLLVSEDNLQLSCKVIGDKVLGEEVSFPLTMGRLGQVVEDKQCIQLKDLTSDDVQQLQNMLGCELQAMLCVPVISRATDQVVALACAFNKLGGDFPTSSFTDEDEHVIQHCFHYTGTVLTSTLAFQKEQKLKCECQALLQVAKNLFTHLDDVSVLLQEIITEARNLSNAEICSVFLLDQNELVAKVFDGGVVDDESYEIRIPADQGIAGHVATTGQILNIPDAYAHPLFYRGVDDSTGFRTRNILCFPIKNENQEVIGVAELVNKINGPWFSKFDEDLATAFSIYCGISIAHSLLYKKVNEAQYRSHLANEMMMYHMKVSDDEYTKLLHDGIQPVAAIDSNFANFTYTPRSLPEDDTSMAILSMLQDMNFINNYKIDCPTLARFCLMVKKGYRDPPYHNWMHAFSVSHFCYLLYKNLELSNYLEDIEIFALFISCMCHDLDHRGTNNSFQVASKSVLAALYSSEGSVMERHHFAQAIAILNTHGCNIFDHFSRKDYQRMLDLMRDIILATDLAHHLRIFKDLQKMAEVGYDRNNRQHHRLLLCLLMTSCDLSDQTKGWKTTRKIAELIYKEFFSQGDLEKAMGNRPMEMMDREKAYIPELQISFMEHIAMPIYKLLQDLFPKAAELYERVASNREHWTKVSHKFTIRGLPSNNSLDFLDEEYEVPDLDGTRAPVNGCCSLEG
Experimental: As reflected by the time-activity curves (TACs) shown in Figure 6, the radioactivity uptake in the whole brain, striatum, and cerebellum reached standardized uptake values (SUVs) of about 0.7 at 5 min p.i., indicating blood-brain barrier penetration.
PET/MRI scans were performed using a preclinical PET/MRI system (nanoScan, Mediso Medical Imaging Systems, Budapest, Hungary). Animals were anesthetized with a mixture of air/isoflurane (2.0%, 200 mL/min) (Anesthesia Unit U-410, agntho’s, Lidingö, Sweden), and their body temperature maintained at 37 °C with a thermal bed system. […] A dynamic 60-min PET scan was started 20 sec before radioligand injection. The list-mode data were reconstructed into 33 frames (12 × 10 sec, 6 × 30 sec, 5 × 1 min, 10 × 5 min) with 3D-ordered subset expectation maximization, 4 iterations, and 6 subsets, using an energy window of 400 to 600 KeV and coincidence mode of 1–5. After the PET scan, an MRI scan was performed for anatomical orientation and attenuation correction on a 1T magnet using a T1-weighted gradient-echo sequence (TR = 15 ms, TE = 2.6 ms). The data analysis was done with PMOD (PMOD Technologies Ltd., Zurich, Switzerland, v. 3.6), and an atlas-based method was used to obtain SUV time-activity curves for the striatum, cerebellum, and the whole brain.

[4] = In vitro stability of the radioligand; format: physicochemical; details: PBS, pig plasma, n-octanol and saline formulation containing 10% ethanol; 40 °C, up to 1 h
Experimental: (§1) The lipophilicity was determined by the shake-flask method in the n-octanol/PBS system. […] Moreover, the big discrepancy between the experimental and the calculated logD7.4 value was already observed for our PDE2 tracer [^18F]TA5 and has been previously discussed. It is assumed that the experimentally determined higher hydrophilicity of [^18F]TA5 might be due to the solvation effect related to hydrogen bonding and ionization of the radioligand in the aqueous buffered system. Whereas with the software-based determination, this effect may be underestimated. Therefore, the calculated logD value is often higher than the experimentally determined value.
Samples were taken at 30 and 60 min and analyzed by radio-TLC and radio-HPLC.

[5] = Lipophilicity by shake-flask method (n-octanol/PBS); format: physicochemical; details: n-octanol/PBS pH 7.4, ambient temperature, read-out: logD7.4
Experimental: as §1
The tubes were shaken for 20 min using a mechanical shaker (HS250 basic, IKA Labortechnik GmbH & Co. KG, Staufen, Germany) followed by centrifugation (5000 rpm for 5 min) and separation of the phases. Aliquots of 1 mL of the organic and the aqueous phase were taken, and the activity was measured using an automated gamma counter (1480 WIZARD, Fa. Perkin Elmer, Waltham, MA, USA). The distribution coefficient (D) was calculated as [activity (cpm/mL) in n-octanol]/[(activity (cpm/mL) in PBS], specified as the decadic logarithm (logD).

hPDE2A = details: cited from earlier work
hPDE10A = tested on: hPDE10A; set-up: method as in PMID 24189054, PMID 23651455; details: cited from earlier work
PDE2A [6] = assay: In vitro autoradiography on pig brain cryosections, blocking studies; format: binding; details: 10 µM blocker
Experimental: To verify these findings, blocking studies with 10 µM of TA1 (a potent PDE2 ligand)
Pig brain cryosections (16 µm; Microm HM560 Cryostat, FischerScientific GmbH, Schwerte, Germany) were thawed, dried in a stream of cold air, and preincubated for 10 min with buffer (50 mM TRIS-HCl, pH 7.4, 120 mM NaCl, 5 mM KCl, 2 mM MgCl2) at room temperature. […] The sections were then washed twice with ice-cold 50 mM TRIS-HCl (pH 7.4), dipped in ice-cold deionized water, dried in a stream of cold air, and exposed for 60 min to an image plate. The analysis was performed using an image plate scanner (HD-CR 35; Duerr NDT GmbH, Bietigheim Bissingen, Germany).

SMILES: COc1ccc2nnc3c(C)nc(-c4cc(OCCCC[18F])ccc4F)n3c2n1 [[^18F]TA4]
- IC50 (PDE10A): 0.913 µM
- IC50 (PDE2A [1]): 0.0073 µM

- intact tracer, fraction of total activity in brain ([2]; brain homogenate): 78%
- intact tracer, fraction of total activity in plasma [2]: 43%
- standardized uptake value (SUV) in brain (PDE2A [3]): ~ 0.7
- in vitro stability (radiochemical purity after incubation) [4]: ≥ 99%
- logD [5]: 1.81 ± 0.05
SMILES: COc1ccc(Cl)c(-c2nc(C)c3nnc4ccc(-c5ccnc([18F])c5)cc4n23)c1 [[^18F]BIT1]

SMILES: CCCCOc1ccc(F)c(-c2nc(C)c3nnc4ccc(OCC[18F])nc4n23)c1 [[^18F]TA5]
- IC50 (PDE10A): > 1 µM

SMILES: COc1ccc2nnc3c(C)nc(-c4cc(OCCC[18F])ccc4F)n3c2n1 [[^18F]TA3]
- IC50 (PDE10A): 0.318 µM
- IC50 (PDE2A [1]): 0.0114 µM

SMILES: Cc1nc(-c2cnn(C)c2-c2ccc(C(F)(F)F)cc2)c2c(N3CC([18F])C3)ncnn12 [[^18F]PF-05270430]
- IC50 (hPDE2A): 0.0005 µM
- IC50 (hPDE10A): > 3 µM

- decrease of [18F]BIT1 binding in caudate nucleus (Cd) (PDE2A [6]; 1.72 nM [18F]BIT1): ~ 50%
- decrease of [18F]BIT1 binding in nucleus accumbens (Acb) (PDE2A [6]; 1.72 nM [18F]BIT1): ~ 30%
- decrease of [18F]BIT1 binding in cerebellum (Cb) (PDE2A [6]; 1.72 nM [18F]BIT1, non-PDE2A region): 20–30%
SMILES: COc1ccc(Cl)c(-c2nc(C)c3nnc4ccc(-c5ccnc(F)c5)cc4n23)c1 [BIT1, 1-(2-chloro-5-methoxyphenyl)-8-(2-fluoropyridin-4-yl)-3-methylbenzo[e]imidazo[5,1-c][1,2,4]triazine]
